Source: ChEMBL document CHEMBL1201862, “PubChem BioAssay data set” (2004)
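Five concentrations, 48 hours, 96-well plates. Here, GI50 denotes the concentration required for 50% inhibition of growth.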 The source made the active and inactive calls. Cut-off read from the data, not from the text of the source: active = GI50 up to about 1.1 µM and inactive = higher.

What was measured:
Test in all cases: NCI tumour cell line growth inhibition, 48 h
[1] = test system: KM12
[2] = test system: UACC-257
[3] = test system: SK-MEL-28
[4] = test system: OVCAR-8
[5] = test system: HCT-15
[6] = test system: CAKI-1
[7] = test system: IGROV-1
[8] = test system: SW-620
[9] = test system: A549
[10] = test system: HOP-92
[11] = test system: HT-29
[12] = test system: SF-539
[13] = test system: UO-31
[14] = test system: HCC 2998
[15] = test system: EKVX
[16] = test system: COLO 205
[17] = test system: SF-295
[18] = test system: DLD-1
[19] = test system: DMS-273
[20] = test system: LXFL 529

Row | Structure (SMILES) | GI50 [1] | GI50 [2] | GI50 [3] | GI50 [4] | GI50 [5] [µM] | GI50 [6] | GI50 [7] | GI50 [8] | GI50 [9] | GI50 [10] | GI50 [11] | GI50 [12] | GI50 [13] | GI50 [14] | GI50 [15] | GI50 [16] | GI50 [17] | GI50 [18] | GI50 [19] | GI50 [20]
1 | CCOC(=O)C(NC(=O)CC)(Nc1ccccc1OC)C(F)(F)F (centres undefined) | > 100 µM (inactive) | > 100 µM (inactive) | > 100 µM (inactive) | > 100 µM (inactive) | > 100 | 13 µM (inactive) | > 100 µM (inactive) | > 100 µM (inactive) | > 100 µM (inactive) | > 100 µM (inactive) | > 100 µM (inactive) | > 100 µM (inactive) | > 100 µM (inactive) | > 100 µM (inactive) | > 100 µM (inactive) | > 100 µM (inactive) | > 100 µM (inactive) | – | – | –
2 | Cc1c2c(cc3c1[nH]c1ccccc13)C=NCC2 | 8.65 µM (inactive) | 7.83 µM (inactive) | 7.36 µM (inactive) | 10.2 µM (inactive) | 13.1 | 11.3 µM (inactive) | 16.2 µM (inactive) | 8.43 µM (inactive) | 15.2 µM (inactive) | 3.18 µM (inactive) | 14.2 µM (inactive) | 6.37 µM (inactive) | 24 µM (inactive) | 21.5 µM (inactive) | 33 µM (inactive) | 7.13 µM (inactive) | 11.2 µM (inactive) | 4.2 µM (inactive) | 12.6 µM (inactive) | –
3 | CCOC(=O)/C=C(\C)c1ccc(OC)cc1 | > 100 µM (inactive) | > 100 µM (inactive) | > 100 µM (inactive) | > 100 µM (inactive) | > 100 | > 100 µM (inactive) | > 100 µM (inactive) | > 100 µM (inactive) | > 100 µM (inactive) | > 100 µM (inactive) | 88.9 µM (inactive) | > 100 µM (inactive) | > 100 µM (inactive) | > 100 µM (inactive) | > 100 µM (inactive) | > 100 µM (inactive) | > 100 µM (inactive) | > 100 µM (inactive) | > 100 µM (inactive) | > 100 µM (inactive)
4 | CC(=O)NC1=C[C@@H]([C@H]2COC(C)(C)O2)OC1=O | > 100 µM (inactive) | > 100 µM (inactive) | > 100 µM (inactive) | > 100 µM (inactive) | > 100 | > 100 µM (inactive) | > 100 µM (inactive) | > 100 µM (inactive) | > 100 µM (inactive) | > 100 µM (inactive) | > 100 µM (inactive) | > 100 µM (inactive) | > 100 µM (inactive) | 99.3 µM (inactive) | > 100 µM (inactive) | > 100 µM (inactive) | > 100 µM (inactive) | > 100 µM (inactive) | > 100 µM (inactive) | –
5 | OCCNCN(CNCCO)c1nc(N(CNCCO)CNCCO)nc(N(CNCCO)CNCCO)n1 | 0.137 µM (active) | 0.0643 µM (active) | 0.04 µM (active) | 0.0755 µM (active) | 0.0556 | – | 0.0757 µM (active) | 0.04 µM (active) | 0.0711 µM (active) | 0.0743 µM (active) | > 0.4 µM (active) | 0.075 µM (active) | 0.0851 µM (active) | – | 0.0679 µM (active) | 0.0411 µM (active) | 0.082 µM (active) | 0.04 µM (active) | > 0.4 µM (active) | 0.04 µM (active)
6 | CCCCOc1ccc(OCCCCCCCCCC[N+](C)(C)C)cc1 | 1.48 µM (inactive) | 5.08 µM (inactive) | 5.58 µM (inactive) | 3.66 µM (inactive) | 14.9 | 3.73 µM (inactive) | 1.37 µM (inactive) | 3.66 µM (inactive) | 3.55 µM (inactive) | 1.33 µM (inactive) | 0.452 µM (active) | 3.24 µM (inactive) | 8.02 µM (inactive) | 1.95 µM (inactive) | 15.5 µM (inactive) | 1.24 µM (inactive) | 6.17 µM (inactive) | 6.38 µM (inactive) | 1.51 µM (inactive) | –
7 | CCOC(=O)c1csc(NC(=O)CCN(CC)CC)n1 | 23.5 µM (inactive) | 28.1 µM (inactive) | 27.5 µM (inactive) | 30.7 µM (inactive) | 27.6 | 20.5 µM (inactive) | 39.7 µM (inactive) | 27.2 µM (inactive) | 55 µM (inactive) | 24.5 µM (inactive) | 23.8 µM (inactive) | 26.9 µM (inactive) | 35.7 µM (inactive) | 49.8 µM (inactive) | 63.2 µM (inactive) | 33.8 µM (inactive) | > 100 µM (inactive) | – | – | –
8 | CCOC(=O)/C(C#N)=C1/SC(C(=O)N/N=C/c2ccc(OC)cc2)=C(N)N1c1ccccc1 | > 100 µM (inactive) | 59.4 µM (inactive) | 35.6 µM (inactive) | > 100 µM (inactive) | – | – | 3.1 µM (inactive) | > 100 µM (inactive) | > 100 µM (inactive) | 3.82 µM (inactive) | 31.3 µM (inactive) | 1.16 µM (inactive) | > 100 µM (inactive) | > 100 µM (inactive) | – | > 100 µM (inactive) | 16.1 µM (inactive) | > 100 µM (inactive) | – | 60.4 µM (inactive)
9 | COc1ccc(/C=N/N=C(N)N)c(C(=O)O)c1OC | > 100 µM (inactive) | > 100 µM (inactive) | > 100 µM (inactive) | > 100 µM (inactive) | > 100 | > 100 µM (inactive) | > 10 µM (inactive) | > 100 µM (inactive) | > 100 µM (inactive) | – | > 100 µM (inactive) | > 100 µM (inactive) | > 100 µM (inactive) | – | > 100 µM (inactive) | > 10 µM (inactive) | > 100 µM (inactive) | – | > 100 µM (inactive) | > 100 µM (inactive)
10 | C/N=c1/ssc(=S)n1C(C)C | 25.2 µM (inactive) | 14.5 µM (inactive) | 1.4 µM (inactive) | 25.6 µM (inactive) | – | 21.7 µM (inactive) | 17.5 µM (inactive) | 4.24 µM (inactive) | 25.6 µM (inactive) | 14.3 µM (inactive) | 3.3 µM (inactive) | 25.8 µM (inactive) | 37.7 µM (inactive) | 13.9 µM (inactive) | 57.8 µM (inactive) | 16.1 µM (inactive) | 33.9 µM (inactive) | – | – | 4.18 µM (inactive)
11 | COc1ccc(OC)c(NC(=O)C(=O)C(C(=O)c2ccccc2F)C2OC(=O)c3ccccc32)c1 (centres undefined) | > 100 µM (inactive) | > 100 µM (inactive) | 39.7 µM (inactive) | 35.1 µM (inactive) | 62.5 | 67.8 µM (inactive) | 89.3 µM (inactive) | 49.2 µM (inactive) | 71.1 µM (inactive) | > 100 µM (inactive) | 45.5 µM (inactive) | 26.9 µM (inactive) | 50.6 µM (inactive) | 44.8 µM (inactive) | 62.2 µM (inactive) | 48.3 µM (inactive) | 45.8 µM (inactive) | 42 µM (inactive) | 30.6 µM (inactive) | 77.3 µM (inactive)
12 | Nc1[nH]cnc2ncnc1-2 [ADENINE] | 153 µM (inactive) | 200 µM (inactive) | > 243 µM (inactive) | 105 µM (inactive) | – | – | > 250 µM (inactive) | 231 µM (inactive) | – | 146 µM (inactive) | > 121 µM (inactive) | 49.7 µM (inactive) | 129 µM (inactive) | > 125 µM (inactive) | – | > 162 µM (inactive) | 108 µM (inactive) | 135 µM (inactive) | 81.1 µM (inactive) | –
